Patent publication US9376449B2, “Indole carboxamide derivative” (Astellas Pharma Inc., priority 2012, dated 2016)

Tests used:
[1] = target: T1, human MT2 receptor (Homo sapiens, UniProt P49286); experiment: Activation of human MT2 receptor in receptor-expressing HEK293 cells (intracellular Ca2+, FLIPR); type: cell-based
T1 sequence (P49286 1-362): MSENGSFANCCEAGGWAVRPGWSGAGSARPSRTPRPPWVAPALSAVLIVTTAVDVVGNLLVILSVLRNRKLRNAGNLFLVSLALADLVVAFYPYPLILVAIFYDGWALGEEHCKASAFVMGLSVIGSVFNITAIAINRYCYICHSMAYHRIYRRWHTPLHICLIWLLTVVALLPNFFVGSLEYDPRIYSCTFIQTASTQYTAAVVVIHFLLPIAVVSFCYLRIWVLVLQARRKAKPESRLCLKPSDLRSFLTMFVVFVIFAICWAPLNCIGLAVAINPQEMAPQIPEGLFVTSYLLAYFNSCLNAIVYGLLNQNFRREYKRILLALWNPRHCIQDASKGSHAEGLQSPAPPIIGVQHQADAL
Description: (§1) (1) Isolation of Human MT1 and MT2 Receptor and Construction of Expression Vector
(§2) A human MT1 receptor gene (GenBank Accession No.: NM_005958.3) and a human MT2 receptor gene (GenBank Accession No.: NM_005959.3) were each introduced into an expression vector pCDNA3.1/Zeo (Invitrogen, Inc.).
(§3) (2) Construction of Cells Stably Expressing Human MT1 and Human MT2 Receptor
(§4) The introduction was carried out according to the attached instructions, using a Lipofectoamine (registered trademark) 2000 Reagent (Invitrogen, Inc.). Zeocin and hygromycin were used as a resistant drug, and the cell was incubated for 15 days at 0.02 mg/mL and 0.05 mg/mL, respectively, thereby acquiring drug-resistant clones.
(§5) (3) Measurement of Intracellular Ca^2+ Concentration by FLIPR (Registered Trademark)
(§6) The respective stably expressing cells were dispensed into 96-well poly-D-lysine-coated plates (Falcon Co.) to 40,000 cells/well the day before the experiment, and incubated overnight in a DMEM (Invitrogen, Inc.) medium including 10% FBS at 37° C. and 5% CO2. The medium was replaced with a loading buffer (washing solution (Hank's balanced salt solution (HBSS), 20 mM HEPES-NaOH, 2.5 mM probenecid) including Fluo-4AM (Dojindo Co.) at 4 μM), and incubated for 1 hour at 37° C. and 5% CO2. Thereafter, the cells were washed with a plate washer (ELx405, BIO-TEK Instrument, Inc.) set with the washing solution, and set in an intracellular Ca^2+ concentration measuring systems (FLIPR (registered trademark), Molecular Device Co.). The test compound was dissolved in the washing solution in advance, diluted to a final concentration of −12 to −5 log M, set in a FLIPR (registered trademark) device together with the cells, and added to the cells in the device. At this time, a change in the intracellular Ca^2+ concentrations was measured.
(§7) Ex represents Example No. of the test compound.

[2] = CNS penetration: CSF to plasma unbound concentration ratio in rat; type: in vivo; settings: CSF and plasma (unbound), iv, 15 minutes after intravenous administration, CCSF/Cplasma,u, read-out: Kp,uu,CSF,iv15min
Description: Test Example 4 Test for Evaluating CNS Penetration
(1) Measurement of Unbound Fraction (fp) in Rat Plasma
A test compound (100 μg/mL, 50% acetonitrile solution) at 1% (v/v) with respect to the amount of the plasma was added to rat plasma, and dispensed to a sample for a supernatant and a sample for the plasma. The sample for a supernatant was ultracentrifuged at 436,000×g and 37° C. for 140 minutes, and the sample for the plasma was incubated at 37° C. for 140 minutes.
After 140 minutes, the sample for a supernatant after the ultracentrifugation and the sample for the plasma were taken, and mixed with the blank plasma or the blank supernatant, respectively. Acetonitrile including an internal standard material was added to each of the samples, and after the centrifugation at 2150×g and 4° C. for 10 minutes the supernatant was injected into LC-MS/MS.
The unbound fraction in the plasma was calculated by the following equation.
(wherein fp: an unbound fraction in the plasma and D: a dilution rate of the plasma. fu,app=peak area ratio of supernatant sample/peak area ratio of the plasma sample, and peak area ratio=peak area of test compound/peak area of internal standard material).
(2) The CSF to Plasma Unbound Concentration Ratio in Rat
A 50% acetonitrile solution and an acetonitrile including internal standard material was added to the collected plasma or CSF. After centrifugation at 4° C. and 2150×g for 10 minutes, the supernatant was injected into LC-MS/MS, and the total concentration of the test compound in the plasma (Cplasma,t) and the concentration of the test compound in CSF (CCSF) were obtained. The unbound concentration in the plasma (Cplasma,u) of the test compound and the CSF-to plasma unbound concentration ratio (Kp,uu,CSF) of the test compound was calculated by the following equation.
as §7

[3] = tested on: urethral pressure; experiment: Effect of test compound on urethral pressure in anesthetized rats; type: in vivo, rat; settings: 0.1 mg/kg intravenously, urethane-anesthetized SD female rats
Excerpt: Test Example 3 Test to Evaluate Effect of Test Compound on Urethral Pressure
It has been reported that an increase in the urethra pressure is useful for the treatment of urinary incontinence, particularly stress urinary incontinence (for example, Drugs, 64, 14, 1503-1516 (2004)). In order to confirm whether the compound of the present invention increases the urethra pressure and thus is useful for the treatment of urinary incontinence, particularly stress urinary incontinence, the following tests were carried out.
SD female rats were anesthetized with urethane and subjected to laparotomy. Then, the bladder apex was incised and a catheter was inserted from the bladder apex. Further, the catheter tip was ligated and fixed to be located in the proximal urethra portion. The catheter was connected to a pressure transducer and an infusion pump. Further, a catheter for administrating the compound was fitted into the femoral vein. Physiological saline was continuously infused into the urethra and the perfusion pressure in the urethra was measured. After the urethral pressure was stabilized, the test compound that had been dissolved in physiological saline, or physiological saline including 5% dimethylacetamide and 0.5% Cremophor was administered intravenously at 0.1 mg/kg, and a change in urethral pressures was measured.
Further, the results of administering an active metabolite of midodrine (ST-1059: purchased from CHEMIZON) (J. Urology, 118, 980-982 (1977)) which is an α1 adrenoceptor agonist and has an effect on stress urinary incontinence in rat doses (0.01 mg/kg) presumed to correspond to the clinical doses are referenced and shown in the Tables below. The increment value in the urethra pressures of ramelteon and the Example compounds of the present invention at the time of administration are shown in Table 4. Ex represents Example No. of the test compound.

[4] = target: human MT1 receptor (Homo sapiens, UniProt P48039); experiment: Activation of human MT1 receptor in receptor-expressing HEK293 cells (intracellular Ca2+, FLIPR); type: cell-based
human MT1 receptor, sequence (P48039 whole entry): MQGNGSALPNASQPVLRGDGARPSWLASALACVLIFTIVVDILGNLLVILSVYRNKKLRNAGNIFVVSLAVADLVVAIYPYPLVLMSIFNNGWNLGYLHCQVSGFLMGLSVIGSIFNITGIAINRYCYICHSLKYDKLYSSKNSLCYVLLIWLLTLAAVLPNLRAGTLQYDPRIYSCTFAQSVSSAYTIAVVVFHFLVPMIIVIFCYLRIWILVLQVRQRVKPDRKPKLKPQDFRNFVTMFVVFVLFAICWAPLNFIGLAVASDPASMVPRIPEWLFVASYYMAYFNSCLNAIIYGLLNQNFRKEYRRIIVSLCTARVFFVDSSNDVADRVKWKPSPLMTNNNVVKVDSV
Description: as §1, §2, §3, §4, §5, §6, §7

[5] = tested on: isolated urethra; experiment: Isolated urethra contractile action; set-up: species or system rat; settings: test compound at 1 μM; contractile response by 10 μM phenylephrine as 100%; SD female rat urethra; read-out: Isolated urethra contraction (%)
Description: Test Example 2 Isolated Urethra Contractile Action
(1) Evaluation Test on Urethra Contractile Action of Test Compound Using Isolated Urethra
The urethra was isolated from an SD female rat having a body weight of 100 to 500 g. The isolated urethra was incised longitudinally to give a rectangular strip specimen having a width of about 3 mm, which was suspended in the circular muscle direction in 10 mL of a tissue bath filled with a Krebs-Henseleit solution (pH 7.4). The Krebs-Henseleit solution was bubbled with 95% O2 and 5% CO2, and kept at 37° C. The resting tension was set to 0.5 g to record the isometric contraction. After the resting tension was stabilized, contraction was elicited by the addition of 10 μM phenylephrine. After washing and stabilizing, the test compound was added cumulatively to a final concentration of −12 to −5 log M to measure a contractile response. By taking the contractile response by 10 μM phenylephrine as 100%, the ratio of the contractile response in the concentration of the test compound at 1 μM was calculated.
as §7

[6] = tested on: 3T3; experiment: In vitro 3T3 NRU phototoxicity test; type: cell-based
Description: Test Example 6 Drug Pharmacokinetic Test, Safety Pharmacology Test, and Toxicity Test
Using some Example compounds of the present invention, a drug Pharmacokinetic test, a safety pharmacology test, and a toxicity test were carried out.
(iii) For the toxicity test, for example, an in vitro phototoxicity test was carried out. The evaluation of the in vitro phototoxicity test was carried out in accordance with Guidance for industry photosafety testing, Center for Drug Evaluation and Research Food and Drug Administration, 2003, which is a guideline of FDA (U.S. Food and Drug Administration), and Note for guidance on photosafety testing (CPMP/SWP/398/01, 2002) which is a guideline of EMA (European Medicines Agency), and the method described in OECD guideline for testing of chemicals 432: In vitro 3T3 NRU phototoxicity test, 2004, which is a test method described in the report of OECD.

melting point [°C]	Emax ([1]; HEK293, maximum reaction by ramelteon taken as 100%, solvent only 0%) [%]	EC50 ([1]; HEK293 cells stably expressing human MT2 and Gq/i chimeric G-protein, intracellular Ca2+ by FLIPR) [nM]	Kp uu at 0.25 h [2]	Emax ([4]; HEK293, maximum reaction by ramelteon taken as 100%, solvent only 0%, read-out: MT1 Emax (%)) [%]	EC50 ([4]; HEK293 cells stably expressing human MT1 and Gq/i chimeric G-protein, intracellular Ca2+ by FLIPR) [nM]	SMILES	Increment value in the urethra pressures (mmHg) [3] [mmHg]	activation at 1 µM [5] [%]	phototoxicity action [6]
196 to 200	–	–	–	–	–	CNC(=O)c1[nH]c2cc(F)c(OC)cc2c1CCNC(=O)C(F)F [Ex 57, 3-{2-[(difluoroacetyl)amino]ethyl}-6-fluoro-5-methoxy-N-methyl-1H-indole-2-carboxamide]	–	–	–
209 to 212	–	–	–	–	–	CNC(=O)c1[nH]c2cc(F)c(OC)cc2c1CCNC(C)=O [Ex 56, 3-(2-acetamidoethyl)-6-fluoro-5-methoxy-N-methyl-1H-indole-2-carboxamide]	–	–	–
–	108	26	0.18	104	12	CNC(=O)c1[nH]c2ccc(OC)cc2c1CCNC(C)=O [Ex 1, 3-(2-acetamidoethyl)-5-methoxy-N-methyl-1H-indole-2-carboxamide]	5.1 ± 0.6	128	no phototoxicity action
